Laboratory results reported in patent publication EP4660182A1, “NAV1.7- AND/OR NAV1.8-INHIBITING ARYL PYRIDINE COMPOUNDS, PROCESSES FOR THE PREPARATION THEREOF, COMPOSITIONS, USES, METHODS FOR TREATMENT USING SAME, AND KITS” (Eurofarma Laboratórios S.A., priority 2023, dated 2024).

Tests used:
[1] = molecular target: T1, human sodium channels Nav 1.8 (Homo sapiens, UniProt Q9Y5Y9); experiment: Automated whole-cell voltage-clamp (ScreenPatch 384P) sodium current block, Nav 1.8; assay type: cell-based; conditions: CHO cells stably expressing human Nav 1.8; inactivation step -40 mV 8 s, test step 10 mV (TP1A); eight concentrations; exposure at least five minutes; room temperature; read-out: Nav1.8 IC50
T1 construct: expressed in transfected cells
Procedure, shortened: (§1)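 Stable CHO lines, whole-cell automated patch clamp at room temperature, ≥5 min exposure, eight concentrations. From -100 mV hold, 8 s at -40 mV, 20 ms at -100 mV, then test pulse to 10 mV (Nav 1.8) or 0 mV (Nav 1.7) at 0.05 Hz; peak-current % block fitted for IC50, averaged over repeats.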

[2] = molecular target: T2, human sodium channels Nav 1.7 (Homo sapiens, UniProt Q15858); experiment: Automated whole-cell voltage-clamp (ScreenPatch 384P) sodium current block, Nav 1.7; assay type: cell-based; conditions: CHO cells stably expressing human Nav 1.7; inactivation step -40 mV 8 s, test step 0 mV (TP1A); eight concentrations; exposure at least five minutes; room temperature; read-out: Nav1.7 IC50
T2 construct: expressed in transfected cells
Procedure, shortened: as §1

T2 sequence (Q15858 whole entry): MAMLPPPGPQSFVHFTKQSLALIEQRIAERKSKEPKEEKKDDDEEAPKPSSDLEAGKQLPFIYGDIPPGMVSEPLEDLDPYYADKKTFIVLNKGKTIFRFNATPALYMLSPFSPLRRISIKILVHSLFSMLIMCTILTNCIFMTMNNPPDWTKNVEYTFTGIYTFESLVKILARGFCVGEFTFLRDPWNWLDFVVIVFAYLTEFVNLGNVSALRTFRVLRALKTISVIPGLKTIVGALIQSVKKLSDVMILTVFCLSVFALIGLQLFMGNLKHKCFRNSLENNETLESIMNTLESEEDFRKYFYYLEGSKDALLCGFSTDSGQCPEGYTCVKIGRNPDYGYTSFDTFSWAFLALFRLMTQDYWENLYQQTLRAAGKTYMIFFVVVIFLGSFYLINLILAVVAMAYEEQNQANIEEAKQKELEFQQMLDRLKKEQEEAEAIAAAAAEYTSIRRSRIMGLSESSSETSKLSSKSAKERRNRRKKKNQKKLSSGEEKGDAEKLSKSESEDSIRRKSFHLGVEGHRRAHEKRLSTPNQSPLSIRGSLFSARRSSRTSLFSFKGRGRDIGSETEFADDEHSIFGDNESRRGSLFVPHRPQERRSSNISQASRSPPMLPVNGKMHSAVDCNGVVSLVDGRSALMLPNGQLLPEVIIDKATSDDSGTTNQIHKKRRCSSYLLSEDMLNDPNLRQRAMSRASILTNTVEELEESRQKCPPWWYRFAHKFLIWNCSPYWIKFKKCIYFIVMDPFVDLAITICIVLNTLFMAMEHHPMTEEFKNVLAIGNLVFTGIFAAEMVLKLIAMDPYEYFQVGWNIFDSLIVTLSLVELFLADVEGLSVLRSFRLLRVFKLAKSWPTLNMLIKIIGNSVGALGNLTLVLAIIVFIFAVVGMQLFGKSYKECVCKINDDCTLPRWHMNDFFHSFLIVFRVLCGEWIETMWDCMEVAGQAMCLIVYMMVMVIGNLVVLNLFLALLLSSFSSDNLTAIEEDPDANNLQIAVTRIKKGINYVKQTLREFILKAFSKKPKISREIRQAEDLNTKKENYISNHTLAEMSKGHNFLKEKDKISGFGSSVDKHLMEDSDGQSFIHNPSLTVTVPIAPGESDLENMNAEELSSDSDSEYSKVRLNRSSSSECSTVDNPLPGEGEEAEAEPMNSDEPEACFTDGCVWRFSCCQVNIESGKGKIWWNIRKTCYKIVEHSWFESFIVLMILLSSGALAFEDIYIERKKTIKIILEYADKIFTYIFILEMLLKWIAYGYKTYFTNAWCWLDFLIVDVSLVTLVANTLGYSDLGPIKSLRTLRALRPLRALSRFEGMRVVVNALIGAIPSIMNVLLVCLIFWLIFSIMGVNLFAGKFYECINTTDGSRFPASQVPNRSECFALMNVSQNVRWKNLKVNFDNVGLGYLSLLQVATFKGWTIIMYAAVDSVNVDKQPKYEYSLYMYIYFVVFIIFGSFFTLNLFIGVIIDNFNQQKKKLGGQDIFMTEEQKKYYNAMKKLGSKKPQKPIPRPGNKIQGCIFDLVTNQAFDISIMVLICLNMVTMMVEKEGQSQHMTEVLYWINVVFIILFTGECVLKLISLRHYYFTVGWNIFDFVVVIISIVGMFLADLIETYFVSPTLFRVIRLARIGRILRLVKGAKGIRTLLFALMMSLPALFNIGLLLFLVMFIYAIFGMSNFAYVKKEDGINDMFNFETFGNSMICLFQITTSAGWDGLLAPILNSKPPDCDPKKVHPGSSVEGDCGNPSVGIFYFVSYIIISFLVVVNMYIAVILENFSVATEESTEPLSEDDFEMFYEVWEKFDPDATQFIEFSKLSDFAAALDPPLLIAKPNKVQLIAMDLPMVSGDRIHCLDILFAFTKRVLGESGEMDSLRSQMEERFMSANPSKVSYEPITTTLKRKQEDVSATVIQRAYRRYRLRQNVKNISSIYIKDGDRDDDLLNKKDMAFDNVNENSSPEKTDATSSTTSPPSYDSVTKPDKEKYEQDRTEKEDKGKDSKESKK
T1 sequence (Q9Y5Y9 whole entry): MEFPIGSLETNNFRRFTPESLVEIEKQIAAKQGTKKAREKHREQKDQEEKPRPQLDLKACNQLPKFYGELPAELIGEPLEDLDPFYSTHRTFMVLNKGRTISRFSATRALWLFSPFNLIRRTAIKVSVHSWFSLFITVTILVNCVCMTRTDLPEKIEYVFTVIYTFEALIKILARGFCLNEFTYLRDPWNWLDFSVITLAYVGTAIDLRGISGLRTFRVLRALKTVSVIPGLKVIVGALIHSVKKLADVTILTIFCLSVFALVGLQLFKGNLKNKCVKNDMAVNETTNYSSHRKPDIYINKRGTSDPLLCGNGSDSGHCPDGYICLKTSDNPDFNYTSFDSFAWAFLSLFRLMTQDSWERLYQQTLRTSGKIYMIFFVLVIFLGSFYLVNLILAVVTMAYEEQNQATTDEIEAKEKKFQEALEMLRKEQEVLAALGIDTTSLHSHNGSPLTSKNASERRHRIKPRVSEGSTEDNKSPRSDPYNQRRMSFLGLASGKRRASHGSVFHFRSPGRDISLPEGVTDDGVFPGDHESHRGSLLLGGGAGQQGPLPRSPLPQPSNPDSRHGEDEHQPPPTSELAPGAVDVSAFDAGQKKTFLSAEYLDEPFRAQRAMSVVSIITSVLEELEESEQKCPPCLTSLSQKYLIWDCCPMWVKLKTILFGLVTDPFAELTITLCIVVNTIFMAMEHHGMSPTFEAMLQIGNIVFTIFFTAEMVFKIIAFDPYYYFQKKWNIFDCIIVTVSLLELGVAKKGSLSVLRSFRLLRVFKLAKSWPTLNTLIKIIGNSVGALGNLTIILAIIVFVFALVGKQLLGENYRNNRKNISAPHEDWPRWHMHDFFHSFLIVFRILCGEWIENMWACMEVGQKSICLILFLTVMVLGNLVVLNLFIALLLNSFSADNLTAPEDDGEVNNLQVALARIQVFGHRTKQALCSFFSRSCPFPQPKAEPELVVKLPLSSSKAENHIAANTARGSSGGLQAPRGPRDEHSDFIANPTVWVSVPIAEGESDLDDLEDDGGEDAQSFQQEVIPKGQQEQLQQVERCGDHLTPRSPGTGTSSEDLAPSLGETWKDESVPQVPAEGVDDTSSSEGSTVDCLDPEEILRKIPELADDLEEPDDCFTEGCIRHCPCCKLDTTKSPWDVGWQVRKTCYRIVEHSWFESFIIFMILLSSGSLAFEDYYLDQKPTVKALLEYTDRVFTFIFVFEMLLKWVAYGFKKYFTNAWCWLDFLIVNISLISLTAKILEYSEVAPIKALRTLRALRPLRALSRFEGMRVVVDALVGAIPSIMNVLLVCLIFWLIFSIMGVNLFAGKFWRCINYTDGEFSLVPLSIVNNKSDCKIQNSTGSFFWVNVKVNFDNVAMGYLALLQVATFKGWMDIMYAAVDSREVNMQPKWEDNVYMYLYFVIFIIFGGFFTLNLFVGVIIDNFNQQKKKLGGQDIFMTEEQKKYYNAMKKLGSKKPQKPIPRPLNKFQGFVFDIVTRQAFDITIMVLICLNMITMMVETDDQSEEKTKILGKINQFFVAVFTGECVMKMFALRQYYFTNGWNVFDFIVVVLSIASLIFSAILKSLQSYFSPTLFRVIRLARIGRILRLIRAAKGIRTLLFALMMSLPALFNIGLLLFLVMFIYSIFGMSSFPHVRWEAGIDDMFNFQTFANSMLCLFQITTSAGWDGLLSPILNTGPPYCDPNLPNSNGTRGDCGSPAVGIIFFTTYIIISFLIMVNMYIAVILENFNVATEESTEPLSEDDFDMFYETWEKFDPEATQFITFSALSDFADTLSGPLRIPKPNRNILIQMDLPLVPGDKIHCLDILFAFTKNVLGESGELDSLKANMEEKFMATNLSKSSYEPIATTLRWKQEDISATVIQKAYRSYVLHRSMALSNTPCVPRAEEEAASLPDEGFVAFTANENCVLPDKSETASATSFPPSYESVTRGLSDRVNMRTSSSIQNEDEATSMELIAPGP

| SMILES | IC50 [1] [nM] | IC50 [2] [nM] |
| --- | --- | --- |
| COc1cnc(F)c(/C=N/NC(=O)c2cncc(-c3cnc(OC(F)F)cc3C)n2)c1 [Compound 160, (E)-6-(6-(difluoromethoxy)-4-methylpyridine-3-yl)-N'-((2-fluoro-5-methoxypyridine-3-yl)methylene)pyrazine-2-carbohydrazide] | < 500 | < 500 |
| CCOc1ccc(-c2cncc(C(=O)N/N=C/c3cc(C(=O)O)ccc3F)n2)cn1 [Compound 10, (E)-3-(2-(6-(6-(6-ethoxypyridine-3-yl)pyrazine-2-carbonyl)hydrazinylidene)methyl)-4-fluorobenzoic acid] | > 1000 | > 1000 |
| CCOc1ccc(-c2cnc(O)c(C(=O)N/N=C/c3cc(OC)ccc3F)n2)cn1 [Compound 68, (E)-6-(6-ethoxypyridine-3-yl)-N'-(2-fluoro-5-methoxybenzylidene)-3-hydroxypyrazine-2-carbohydrazide] | > 1000 | > 1000 |
| CCOc1ccc(-c2nc(C(=O)N/N=C/c3cc(OC)cnc3F)cnc2O)cn1 [Compound 67, (E)-6-(6-ethoxypyridine-3-yl)-N'-((2-fluoro-5-methoxypyridine-3-yl)methylene)-5-hydroxypyrazine-2-carbohydrazide] | > 1000 | > 1000 |
| CNS(=O)(=O)c1ccc(-c2cncc(C(=O)N/N=C/c3cc(OC)ccc3F)n2)cn1 [Compound 134, (E)-5-(6-(2-(2-fluoro-5-methoxybenzylidene)hydrazine-1-carbonyl)pyrazine-2-yl)-N-methylpyridine-2-sulfonamide] | > 1000 | > 1000 |
| COc1cnc(F)c(/C=N/NC(=O)c2cncc(-c3ccc(OC(F)(F)F)nc3)n2)c1 [Compound 95, (E)-N'-((2-fluoro-5-methoxypyridine-3-yl)methylene)-6-(6-(trifluoromethoxy)pyridine-3-yl)pyrazine-2-carbohydrazide] | < 500 | > 1000 |
| CCOc1ccc(-c2cncc(C(=O)N/N=C/c3cccc(O)n3)n2)cn1 [Compound 40, (E)-6-(6-ethoxypyridine-3-yl)-N'-((6-hydroxypyridine-2-yl)methylene)pyrazine-2-carbohydrazide] | > 1000 | > 1000 |
| CCOc1ccc(F)c(/C=N/NC(=O)c2cncc(-c3ccc(OC4CC4)nc3)n2)c1 [Compound 80, (E)-6-(6-cyclopropoxypyridine-3-yl)-N'-(5-ethoxy-2-fluorobenzylidene)pyrazine-2-carbohydrazide] | < 500 | > 1000 |
| CCOc1ccc(-c2cncc(C(=O)N/N=C/c3cccn3C)n2)cn1 [Compound 50, (E)-6-(6-ethoxypyridine-3-yl)-N'-((1-methyl-1H-pyrrole-2-yl)methylene)pyrazine-2-carbohydrazide] | < 500 | > 1000 |
| CC(O)c1ccnc(/C=N/NC(=O)c2cncc(-c3ccc(OC(F)F)nc3)n2)c1 (stereo not drawn) [Compound 114, (E)-6-(6-(difluoromethoxy)pyridine-3-yl)-N'-((4-(1-hydroxyethyl)pyridine-2-yl)methylene)pyrazine-2-carbohydrazide] | > 1000 | > 1000 |
| COc1ccc(F)c(/C=N/NC(=O)c2cncc(-c3ccc(OCC4CN(C)C4)nc3)n2)c1 [Compound 146, (E)-N'-(2-fluoro-5-methoxybenzylidene)-6-(6-((1-methylazetidine-3-yl)methoxy)pyridine-3-yl)pyrazine-2-carbohydrazide] | > 1000 | > 1000 |
| COc1cc(/C=N/NC(=O)c2cncc(-c3ccc(OC(F)(F)F)nc3)n2)c(F)cn1 [Compound 96, (E)-N'-((5-fluoro-2-methoxypyridine-4-yl)methylene)-6-(6-(trifluoromethoxy)pyridine-3-yl)pyrazine-2-carbohydrazide] | < 500 | > 1000 |
| COc1cnc(O)c(/C=N/NC(=O)c2cncc(-c3ccc(OC(F)F)nc3)n2)c1 [Compound 117, (E)-6-(6-(difluoromethoxy)pyridine-3-yl)-N'-((2-hydroxy-5-methoxypyridine-3-yl)methylene)pyrazine-2-carbohydrazide] | > 1000 | > 1000 |
| COc1ccc(F)c(/C=N/NC(=O)c2cncc(-c3ccc(C#N)nc3)n2)c1 [Compound 130, (E)-6-(6-cyanopyridine-3-yl)-N'-(2-fluoro-5-methoxybenzylidene)pyrazine-2-carbohydrazide] | > 1000 | > 1000 |
| CC(C)Oc1ccc(F)c(/C=N/NC(=O)c2cncc(-c3ccc(OC(F)(F)F)nc3)n2)c1 [Compound 92, (E)-N'-(2-fluoro-5-isopropoxybenzylidene)-6-(6-(trifluoromethoxy)pyridine-3-yl)pyrazine-2-carbohydrazide] | < 500 | < 500 |
